Key:
Opp = details: ref [17]; cited from earlier work
opp expression = details: ref [17],[18]; cited from earlier work
translation in vivo = details: early studies; ref [16]; cited from earlier work
Excerpt: (§1) Therefore, the most likely explanation for the observed tri-L-ornithine/GE81112 cross-resistance is that the mutations have inactivated the same transport mechanism that allows these two molecules to enter the cell.

[1] = test system: mRNA translation in cell-free extracts; details: ref [16]; cited from earlier work
Excerpt: as §1

[2] = test system: E. coli MG1655 resistant mutants; assay: Cross-resistance of resistant mutants; assay type: cell-based; details: of 100 GE81112-resistant colonies; tri-L-ornithine 100 μg/mL
[3] = test system: E. coli DH5α + pB2 (oppBCDF); assay: Growth inhibition halo; assay type: cell-based; details: 10 μg; minimal medium agar; 24 h at 37 °C
Experimental: (§2) The inhibition of bacterial growth by antibiotics was also determined from the diameter of the growth inhibition halo. Bacterial suspensions obtained after overnight growth in minimal medium were diluted and inoculated in 4 mL of Agar–H2O (0.75%) and plated on minimal medium. Ten-microliter spots of the antibiotics were added and the growth inhibition halos measured after 24 h incubation at 37 °C.

[4] = test system: E. coli DH5α + pBΦ30 (oppA); assay: Growth inhibition halo; assay type: cell-based; details: 10 μg; minimal medium agar; 24 h at 37 °C
Experimental: as §2

E. coli SS320 (wt) = assay: Growth inhibition halo; assay type: cell-based; details: minimal medium agar, 24 h at 37 °C
Experimental: as §2

[5] = test system: E. coli DH5α + pBΦ30 + pB2; assay: Growth inhibition halo; assay type: cell-based; details: 10 μg; minimal medium agar; 24 h at 37 °C
Experimental: as §2

E. coli MG1655 = assay: Growth inhibition halo; assay type: cell-based
Experimental: as §2

[6] = test system: E. coli SS5012 (ΔoppABCDF); assay: Growth inhibition halo; assay type: cell-based; details: for Halo of Inhibition: minimal medium agar, 24 h at 37 °C
Experimental: as §2

[7] = test system: E. coli SS320 (wt) + pB2 + pBΦ30; assay: Growth inhibition halo; assay type: cell-based; details: for Halo of Inhibition: minimal medium agar, 24 h at 37 °C
Experimental: as §2

[8] = test system: E. coli SS5012 + pB2 (oppBCDF); assay: Growth inhibition halo; assay type: cell-based; details: minimal medium agar, 24 h at 37 °C
Experimental: as §2

[9] = test system: E. coli SS5012 + pB2 + pBΦ30; assay: Growth inhibition halo; assay type: cell-based; details: for Halo of Inhibition: minimal medium agar, 24 h at 37 °C
Experimental: as §2

[10] = test system: E. coli SS5012 + pBΦ30 (oppA); assay: Growth inhibition halo; assay type: cell-based; details: minimal medium agar, 24 h at 37 °C
Experimental: as §2

E. coli DH5α = assay: Growth inhibition halo; assay type: cell-based
Experimental: as §2

[11] = test system: bacterial peptide transporting systems; details: ref [10]; cited from earlier work
Excerpt: Indeed, several peptide transport systems exist in E. coli as well in B. subtilis and the peptides actively transported inside the cells can supp ...

[12] = test system: ribosome, 16S rRNA mutation A794U; assay: In vitro mRNA translation; assay type: biochemical; details: E. coli AVS69009 16S rRNA A794U
Experimental: (§3) The ribosomal localization of GE81112, as determined by a recent crystallographic study, places this antibiotic in a position that is not too far away from the binding site of kasugamycin [20, 21]. For this reason, some ribosomal mutants bearing 16S rRNA base substitutions that cause kasugamycin resistance were tested for their sensitivity to GE81112 inhibition.
(§4) The 027IF2Cp(A) mRNA and the bacterial S30 cell extracts were prepared as described. The incubation conditions for mRNA translation and for the determination of synthesized product have also been previously described.

[13] = test system: ribosome, 16S rRNA mutation A794G; assay: In vitro mRNA translation; assay type: biochemical; details: E. coli AVS69009 16S rRNA A794G
Experimental: as §3, §4

ribosome, 16S rRNA wt = assay: In vitro mRNA translation; assay type: biochemical; details: E. coli AVS69009 16S rRNA wt
Experimental: as §3, §4

[14] = test system: ribosome, 16S rRNA mutation G926A; assay: In vitro mRNA translation; assay type: biochemical; details: E. coli AVS69009 16S rRNA G926A
Experimental: as §3, §4

[15] = test system: ribosome, 16S rRNA mutation A1518U; assay: In vitro mRNA translation; assay type: biochemical; details: E. coli AVS69009 16S rRNA A1518U
Experimental: as §3, §4

[16] = test system: ribosome, 16S rRNA mutation G926C; assay: In vitro mRNA translation; assay type: biochemical; details: E. coli AVS69009 16S rRNA G926C
Experimental: as §3, §4

[17] = test system: ribosome, 16S rRNA mutation G926U; assay: In vitro mRNA translation; assay type: biochemical; details: E. coli AVS69009 16S rRNA G926U
Experimental: as §3, §4

glutamine synthetase = details: product of bialaphos hydrolysis; ref [10]; cited from earlier work
[18] = test system: B. subtilis resistant clones; assay: Cross-resistance of resistant clones; assay type: cell-based; details: of 10 GE81112-resistant clones
Opp of B. subtilis = details: ref [10]; cited from earlier work
[19] = 10 μg, minimal medium agar, 24 h at 37 °C

In the case of tri-L-alanine, the Opp substrate (Opp) is listed as “known non-toxic Opp substrate”.

In the case of CC(C)C[C@H](N)C(=O)O [L-leucine], the “effect on opp expression” value (opp expression) is given as “induces opp expression”.

In the case of tri-L-ornithine [Orn3], the “inhibition of translation in vivo” value (translation in vivo) is given as “inhibits translation in vivo”, the “inhibition of mRNA translation in vitro” value [1] is given as “unable to inhibit mRNA translation” and the “number of GE81112-resistant mutants cross-resistant to tri-L-ornithine” value [2] is given as 100. For the same molecule, the “Halo of Inhibition” value [3] was 10 mm, the “Halo of Inhibition” value [4] was 11 mm and the “Halo of Inhibition” value (E. coli SS320 (wt); 1 μg) was 7 mm. For the same molecule, the “Halo of Inhibition” value (E. coli SS320 (wt); 10 μg) was 12 mm, the “Halo of Inhibition” value [5] was 14 mm and the “Halo of Inhibition” value (E. coli MG1655; [19]) was 10 mm. For the same molecule, the “growth inhibition, in words” value (E. coli MG1655; E. coli MG1655 (Table 4)) was “inhibited”, the “Halo of Inhibition” value ([6]; 1 μg) was 0 mm and the “Halo of Inhibition” value ([6]; 10 μg) was 0 mm. The “growth inhibition on minimal medium agar, in words” value ([6]; E. coli 5012, opp− mutant) was “insensitive”, the “Halo of Inhibition” value ([7]; 1 μg) was 17 mm and the “Halo of Inhibition” value ([7]; 10 μg) was 27 mm. For the same molecule, the “sensitivity, in words” value ([7]; wt transformed with both pBΦ30 and pB2) was “more sensitive”, the “Halo of Inhibition” value ([8]; 1 μg) was 0 mm and the “Halo of Inhibition” value ([8]; 10 μg) was 0 mm. For the same molecule, the “Halo of Inhibition” value ([9]; 1 μg) was 18 mm, the “Halo of Inhibition” value ([9]; 10 μg) was 26 mm and the “sensitivity, in words” value ([9]; expression in trans of oppA together with oppBCDF) was “sensitive”. The “Halo of Inhibition” value ([10]; 1 μg) was 0 mm, the “Halo of Inhibition” value ([10]; 10 μg) was 0 mm and the “Halo of Inhibition” value (E. coli DH5α; [19]) was 0 mm. For the same molecule, the “growth inhibition, in words” value (E. coli DH5α; E. coli DH5α (Table 4)) was “unaffected” and the “active transport with antibacterial effects” value [11] was “actively transported inside the cell causing antibacterial effects”.

In the case of C[C@H]1O[C@H](O[C@H]2[C@H](O)[C@@H](O)[C@@H](O)[C@H](O)[C@@H]2O)[C@@H](N)C[C@@H]1NC(=N)C(=O)O [Kasugamycin], the “IC50 of mRNA Translation” value [12] is reported as 384 µg/mL, the “IC50 of mRNA Translation” value [13] is reported as 780 µg/mL and the “IC50 of mRNA Translation” value (ribosome, 16S rRNA wt) is reported as 12 µg/mL. For the same molecule, the “IC50 of mRNA Translation” value [14] was 390 µg/mL, the “IC50 of mRNA Translation” value [15] was 880 µg/mL and the “IC50 of mRNA Translation” value [16] was 192 µg/mL. For the same molecule, the “IC50 of mRNA Translation” value [17] was 750 µg/mL.

For CP(=O)(O)CC[C@H](N)C(=O)O [phosphinothricin], the “inhibition of glutamine synthetase” value (glutamine synthetase) is given as “inhibits glutamine synthetase”.

In the case of bialaphos, the “active transport with antibacterial effects” value [11] is listed as “actively transported inside the cell causing antibacterial effects”, the “GE81112-resistant clones sensitive to bialaphos” value [18] is listed as “none” and the “active transport by Opp” value (Opp of B. subtilis) is listed as “actively transported by Opp”.

Source: PMC4929432, “The Oligopeptide Permease Opp Mediates Illicit Transport of the Bacterial P-site Decoding Inhibitor GE81112” (Antibiotics, 2016)
